The results in this text go back to patent US20060160811A1, “Aryl-condensed 3-arylpridine compounds and use thereof for controlling pathogenic fungi” (priority 2003, published 2006).

Molecules are shown by their SMILES.

System in the first data set: not given
Assay: not given
Settings: not given
Consider `Fc1cc(F)c(-c2c(OCc3ccccc3)nc3ncncc3c2Cl)c(F)c1` (hydrate or solvate) [Example 3, 7-Benzyloxy-5-chloro-6-(2,4,6-trifluorophenyl)pyrido[2,3-d]pyrimidine], for which the melting point was 146 °C. The same measure, in the same setting: under `Oc1nc2ncncc2c(O)c1-c1c(F)cc(F)cc1F` [Example 1, 6-(2,4,6-Trifluorophenyl)pyrido[2,3-d]pyrimidine-5,7-diol] stands 348 °C (dec.); under `Fc1cc(F)c(-c2c(Cl)nc3ncncc3c2Cl)c(F)c1` [Example 2, 5,7-Dichloro-6-(2,4,6-trifluorophenyl)pyrido[2,3-d]pyrimidine], 169 °C.

Turning to `Cc1ccc2c(O)c(-c3c(F)cc(F)cc3F)c(C)nc2n1` [Example 5, 2,7-Dimethyl-3-(2,4,6-trifluorophenyl)-[1,8]naphthyridin-4-ol], the melting point stood at 315 °C. For `CC1CCN(c2c(-c3c(F)cc(F)cc3F)c(O)nc3ncncc23)CC1` [Example 8, 5-(4-Methylpiperidin-1-yl)-6-(2,4,6-trifluorophenyl)pyrido[2,3-d]pyrimidin-7-ol], the melting point was determined as 268 °C.

Another data set concerns Leptosphaeria nodorum. Kind of data set: Activity against leaf blotch on wheat caused by Leptosphaeria nodorum, protective application. In kind it is in vivo. The settings on record: protective spray, wheat cultivar Kanzler, inoculated next day, visual rating after 8 days, untreated control 80%. The procedure:
The active compounds were prepared as a stock solution with 0.25% by weight of active compound in acetone or DMSO (dimethyl sulfoxide). 1% by weight of the emulsifier Uniperol® EL (wetting agent having emulsifying and dispersing action based on ethoxylated alkylphenols) was added to this solution, and the solution was diluted with water to the desired concentration.
Activity against leaf blotch on wheat caused by Leptosphaeria nodorum, protective application.
Pots with wheat plants of the cultivar “Kanzler” were sprayed to runoff point with an aqueous suspension having the concentration of active compound stated below. The next day, the pots were inoculated with an aqueous spore suspension of Leptosphaeria nodorum. The plants were then placed in a chamber at 20° C. and maximum atmospheric humidity. After 8 days, the leaf blotch on the untreated but infected control plants had developed to such an extent that the degree of infection could be determined visually in %.
Regarding `Oc1nc2nccnc2c(O)c1-c1c(F)cc(F)cc1F`, the “Leaf infection [%] at 250 ppm” value amounted to 10%. On the same count and under the same terms, under `CC1CCN(c2nc3ncncc3c(Cl)c2-c2c(F)cc(F)cc2F)CC1` stands 3%; under `Fc1cc(F)c(-c2c(Cl)nc3ncncc3c2Cl)c(F)c1` [drawing 26], 3%.
